In patent US5914339A, “Substituted 1,3-benzodioxoles” (American Home Products Corporation, priority 1997, dated 1999):
Where two headings read alike, the source gives them in different places. Blank lines part the entries; values can stand above or below the compound they belong to.

Key:
plasma free fatty acids = assay: Effects on plasma free fatty acid levels in rats; format: in vivo, rat; details: for ED50: Rattus norvegicus, 50 min, read-out: Rat Free Fatty Acid: ED50
Experimental: Rats respond to a single oral dose of β3 agonists by increasing plasma free fatty acids (FFA) in response to β3 receptor stimulation on the plasma membrane of the fat cell. 5-{2-[2-(3-Chloro-phenyl)-2-hydroxy-ethylamino]-propyl}-benzo[1,3]dioxole- 2,2-dicarboxylic acid diisopropyl ester (Standard 2) was used as a standard compound. All test compounds were dosed at 0.1 mg/kg and compared to the response by Standard 2.
1). Drugs were dissolved in DMSO at 10 mg/ml.
2). Twenty μl of the DMSO-drug solution was added to 10 mL methyl cellulose:tween-80 (0.5%:0.1%) for a final concentration of 20 μg/mL.
3). Methyl cellulose:tween-80 drug suspension was given via gavage (1 mL/200 g body weight; or 0.1 mg/kg) to rats and blood was collected 50 min later.
4). Plasma was analyzed for free fatty acids using a kit supplied by Biochemical Diagnostics Inc. (Brentwood, N.Y.).
5). Drug response was calculated from the formula below. [formula]
^b Elevation of plasma free fatty acids in rats, compounds tested at
0.1 mg/kg, results expressed as % of
5{2[2(3-Chloro-phenyl)-2-hydroxy-ethylaminopropylbenzo[1,3dioxole-2,2-dic
rboxylic acid diisopropyl ester response (78% increase) at 0.1 mg/kg.
ED50 (mg/kg) values determined for selected compounds.

[1] = target: human β2 adrenergic receptor (Homo sapiens, UniProt P07550); assay: cell-based; details: for activation at 0.01 µM: 10 min, read-out: β2: % of isoproterenol activity (increase in cAMP)
Procedure, shortened: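 CHO cells transfected with human β1 or β2 adrenergic receptors were grown to confluence and exposed to compound at 10 nM for 10 min at 37° C. Cellular cAMP was measured by scintillation proximity assay. Activity is expressed as % of the response to 10 μM isoproterenol; EC50 (μM) was determined for selected compounds.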

plasma glucose = assay: Effects on hyperglycemia in db/db mice, plasma glucose; format: in vivo, mouse (male, db/db (C57BL/KsJ)); details: Mus musculus, po, 96 h; p.o., 4 days, mean of 2 and 4 h values on Day 4; footnote c gives mg/kg/day; read-out: db/db Mice Plasma Glucose: ED50 for lowering of plasma glucose
[2] = target: human β1 adrenergic receptor (Homo sapiens, UniProt P08588); assay: Human β1 adrenergic receptor agonist activity, cAMP increase in transfected CHO cells; format: cell-based
human β1 adrenergic receptor, sequence (P08588 whole entry): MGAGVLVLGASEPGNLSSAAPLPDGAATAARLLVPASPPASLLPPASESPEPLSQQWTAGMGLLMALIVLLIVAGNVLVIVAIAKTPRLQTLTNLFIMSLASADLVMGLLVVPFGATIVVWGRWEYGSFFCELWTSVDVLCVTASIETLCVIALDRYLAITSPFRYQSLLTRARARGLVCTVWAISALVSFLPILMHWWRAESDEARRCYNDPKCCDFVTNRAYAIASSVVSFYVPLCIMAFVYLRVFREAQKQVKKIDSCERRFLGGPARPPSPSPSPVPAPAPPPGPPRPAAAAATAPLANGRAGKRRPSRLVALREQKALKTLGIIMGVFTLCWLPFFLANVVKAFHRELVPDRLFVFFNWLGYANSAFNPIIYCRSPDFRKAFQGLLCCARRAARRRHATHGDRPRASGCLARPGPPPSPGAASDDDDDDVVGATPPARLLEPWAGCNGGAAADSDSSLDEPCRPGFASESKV
Experimental: (§1) The activity of the test compounds on human β-adrenergic receptors was determined with Chinese hamster ovary (CHO) cells transfected with human β2, or β1 adrenergic receptors. Agonist activity is indicated by increased cAMP levels in the CHO cells. Selectivity of the test compounds for the β3 receptor was assessed by comparison with results in β2 and β1 adrenergic receptor transfected cells.
1). Chinese hamster ovary (CHO) cells transfected with human β2, or β1 adrenergic receptors were used in the assay.
2). Cells were grown to confluent conditions in 24 well plates.
3). Drugs were dissolved in DMSO at a concentration of 10 μM.
4). Cells were incubated with drug at 10 nM concentration for 10 min at 37° C.
5). Cell cAMP concentrations were assayed using a scintillation proximity assay kit from Amersham Corp., Chicago, Ill.
6). Activities for the test compounds are expressed as a percentage of the isoproterenol response.
Production of the CHO cells transfected with human β2, or β1 adrenergic receptors, and compound test procedures utilizing the CHO cells, are described by Emorine et al. in their article "Molecular Characterization of the Human Beta3 -Adrenergic Receptor", Science 1989, 245(8), 1118-1121 and by Muzzin et al. in the article "An Adipose Tissue-Specific Beta3 -Adrenergic Receptor", J. Biol. Chem.1991, 266, 24053-24058.
^a Human β receptors expressed in Chinese hamster ovary cells,
compounds tested at 10 nM, results expressed as % of isoproterenol
activity (increase in cAMP) at 10 μM. EC50 (μM) values
determined for selected compounds.

[3] = tested on: human β-adrenergic receptors; assay: cAMP elevation in all 3 transfected CHO cell types; format: cell-based; details: 10 μM, all 3 cell types
Experimental: as §1
4). […]

[4] = elevation of plasma free fatty acids, oral gavage, selected compounds
[5] = cAMP in CHO cells, selected compounds, read-out: β2: EC50
[6] = compounds tested at 10 nM, isoproterenol at 10 μM, CHO cells, 10 min at 37° C
[7] = cAMP in CHO cells, selected compounds, read-out: β1: EC50

Compound: CC(Cc1ccc2c(c1)OC(C(=O)OC(C)C)(C(=O)OC(C)C)O2)NCC(O)c1cccc(Cl)c1 (centres unmarked) [5-{2-[2-(3-Chloro-phenyl)-2-hydroxy-ethylamino]-propyl}-benzo[1,3]dioxole-2,2-dicarboxylic acid diisopropyl ester, reference compound]
increase of plasma free fatty acids (plasma free fatty acids; 0.1 mg/kg, rats): 78%

Compound: CC(Cc1ccc2c(c1)OC(C(=O)OCCc1ccccc1)(C(=O)OCCc1ccccc1)O2)NCC(O)c1cccc(Cl)c1.Cl (centres unmarked) [Example 2, 5-{2-[2-(3-Chloro-phenyl)-2-hydroxy-ethylamino]-propyl}-benzo[1,3]dioxole-2,2-dicarboxylic acid diphenethyl ester hydrochloride salt]
ED50 (plasma free fatty acids; [4]): 0.071 mg/kg | EC50 [1, 5]: 22 nM | ED50 (plasma glucose): 0.128 mg/kg

Compound: CC(Cc1ccc2c(c1)OC(C(=O)OC(C)c1ccccc1)(C(=O)OC(C)c1ccccc1)O2)NCC(O)c1cccc(Cl)c1 (centres unmarked) [Example 16, 5-{2-[2-(3-Chloro-phenyl)-2-hydroxy-ethylamino]-propyl}-benzo[1,3]dioxole-2,2-dicarboxylic acid bis-(1-phenyl-ethyl) ester]
ED50 (plasma free fatty acids; [4]): 0.128 mg/kg

Compound: CC(Cc1ccc2c(c1)OC(C(=O)OCCOC(C)C)(C(=O)OCCOC(C)C)O2)NCC(O)c1cccc(Cl)c1 (centres unmarked) [Example 21, 5-{2-[2-(3-Chloro-phenyl)-2-hydroxy-ethylamino]-propyl}-benzo[1,3]dioxole-2,2-dicarboxylic acid bis-(2-isopropoxy-ethyl) ester]
ED50 (plasma free fatty acids; [4]): 0.086 mg/kg | activation at 0.01 µM [1, 6]: 2%

Compound: CC(Cc1ccc2c(c1)OC(C(=O)OCC[Si](C)(C)C)(C(=O)OCC[Si](C)(C)C)O2)NCC(O)c1cccc(Cl)c1 (centres unmarked) [Example 31, 5-{2-[2-(3-Chloro-phenyl)-2-hydroxy-ethylamino]-propyl}-benzo[1,3]dioxole-2,2-dicarboxylic acid bis-(2-trimethylsilanyl-ethyl) ester]
ED50 (plasma free fatty acids; po): 0.09 mg/kg | activation at 0.01 µM ([1]; CHO): 5%

Compound: CC(Cc1ccc2c(c1)OC(C(=O)OCCC(C)(C)C)(C(=O)OCCC(C)(C)C)O2)NCC(O)c1cccc(Cl)c1 (centres unmarked) [Example 33, 5-{2-[2-(3-Chloro-phenyl)-2-hydroxy-ethylamino]-propyl}-benzo[1,3]dioxole-2,2-dicarboxylic acid bis-(3,3-dimethyl-butyl) ester]
ED50 (plasma free fatty acids; [4]): 0.08 mg/kg | EC50 [2, 7]: 5900 nM | EC50 [1, 5]: 100 nM | ED50 (plasma glucose): 0.201 mg/kg

Compound: CC(Cc1ccc2c(c1)OC(C(=O)OCC1CC1)(C(=O)OCC1CC1)O2)NCC(O)c1cccc(Cl)c1 (centres unmarked) [Example 38, 5-{2-[2-(3-Chloro-phenyl)-2-hydroxy-ethylamino]-propyl}-benzo[1,3]dioxole-2,2-dicarboxylic acid bis-cyclopropylmethyl ester]
ED50 (plasma free fatty acids; [4]): 0.086 mg/kg | EC50 [1, 5]: 274 nM

Compound: CC(Cc1ccc2c(c1)OC(C(=O)OCC1CCC1)(C(=O)OCC1CCC1)O2)NCC(O)c1cccc(Cl)c1 (centres unmarked) [Example 40, 5-{2-[2-(3-Chloro-phenyl)-2-hydroxy-ethylamino]-propyl}-benzo[1,3]dioxole-2,2-dicarboxylic acid bis-cyclobutylmethyl ester]
ED50 (plasma free fatty acids; [4]): 0.071 mg/kg | EC50 [2, 7]: 8400 nM | EC50 [1, 5]: 420 nM

Compound: CC(Cc1ccc2c(c1)OC(C(=O)O)(C(=O)OCC1CCC1)O2)NCC(O)c1cccc(Cl)c1 (centres unmarked) [Example 70, 5-{2-[2-(3-Chloro-phenyl)-2-hydroxy-ethylamino]-propyl}-benzo[1,3]dioxole-2,2-dicarboxylic acid cyclobutylmethyl ester]
EC50 [2]: 3000 nM | EC50 [1]: 48 nM

Compound: CC(C)CCOC(=O)C1(C(=O)O)Oc2ccc(C[C@@H](C)NC[C@H](O)c3cccc(Cl)c3)cc2O1 (stereo partly drawn) [Example 76, 5-{(2R)-2-[(2R)-2-(3-Chloro-phenyl)-2-hydroxy-ethylamino]-propyl}-benzo[1,3]dioxole-2,2-dicarboxylic acid (3-methylbutyl)ester]
EC50 [2]: 980 nM | EC50 [1]: 74 nM

Compound: C[C@H](Cc1ccc2c(c1)OC(C(=O)O)(C(=O)OCC(C)(C)C)O2)NC[C@H](O)c1cccc(Cl)c1 (stereo partly drawn) [Example 80, 5-{(2R)-2-[(2R)-2-(3-Chloro-phenyl)-2-hydroxy-ethylamino]-propyl}-benzo[1,3]dioxole-2,2-dicarboxylic acid (2,2-dimethyl-propyl)ester]
EC50 [2]: 2400 nM | EC50 [1]: 55 nM

Compound: CC(C)NCC(O)c1ccc(O)c(O)c1 (centres unmarked) [Isoproterenol]
cAMP elevation [3]: maximal cAMP elevation

Compound: Carbonic acid 3-chloro-benzyl ester 2-(3-chloro-benzyloxycarbonyloxy)-4-{2-[2-(3-chloro-phenyl)-2-hydroxy-ethylamino]-propyl}-phenyl ester [Example 15]
Rat Free Fatty Acid: elevation of plasma free fatty acids, % of diisopropyl ester (Standard 2) response (plasma free fatty acids; 0.1 mg/kg, gavage, blood collected 50 min later): 46% | β2: % of isoproterenol activity (increase in cAMP) [1, 6]: 18%

The next lines start with results.

activation at 0.01 µM [1, 6]: 14%
Compound: CC(Cc1ccc2c(c1)OC(C(=O)OCCc1ccsc1)(C(=O)OCCc1ccsc1)O2)NCC(O)c1cccc(Cl)c1 (centres unmarked) [Example 71, 5-{2-[2-(3-Chloro-phenyl)-2-hydroxy-ethylamino]-propyl}-benzo[1,3]dioxole-2,2-dicarboxylic acid bis 2-(3-Thienyl)ethyl-ester]
ED50 (plasma free fatty acids; [4]): 0.076 mg/kg

EC50 [2, 7]: 5400 nM | EC50 [1, 5]: 58 nM
Compound: CC(C)CCOC(=O)C1(C(=O)OCCC(C)C)Oc2ccc(C[C@@H](C)NC[C@H](O)c3cccc(Cl)c3)cc2O1 [Example 75, 5-{(2R)-2-[(2R)-2-(3-Chloro-phenyl)-2-hydroxy-ethylamino]-propyl}-benzo[1,3]dioxole-2,2-dicarboxylic acid bis-(3-methylbutyl)ester]
ED50 (plasma free fatty acids; [4]): 0.026 mg/kg | ED50 (plasma glucose): 0.11 mg/kg

EC50 [2, 7]: 5000 nM | EC50 [1, 5]: 325 nM
Compound: C[C@H](Cc1ccc2c(c1)OC(C(=O)OCC(C)(C)C)(C(=O)OCC(C)(C)C)O2)NC[C@H](O)c1cccc(Cl)c1 [Example 78, 5-{(2R)-2-[(2R)-2-(3-Chloro-phenyl)-2-hydroxy-ethylamino]-propyl}-benzo[1,3]dioxole-2,2-dicarboxylic acid bis-(2,2-dimethyl-propyl) ester]
ED50 (plasma free fatty acids; [4]): 0.027 mg/kg | ED50 (plasma glucose): 0.028 mg/kg

EC50 [2, 7]: 380 nM | EC50 [1, 5]: 59 nM
Compound: C[C@H](Cc1ccc2c(c1)OC(C(=O)O)(C(=O)OCCC(C)(C)C)O2)NC[C@H](O)c1cccc(Cl)c1 (stereo partly drawn) [Example 81, 5-{(2R)-2-[(2R)-2-(3-Chloro-phenyl)-2-hydroxy-ethylamino]-propyl}-benzo[1,3]dioxole-2,2-dicarboxylic acid (3,3-dimethylbutyl) ester]

activation at 0.01 µM [1, 6]: 3%
Compound: C[C@H](Cc1ccc2c(c1)OC(C(=O)OC/C=C\COCc1ccccc1)(C(=O)OC/C=C\COCc1ccccc1)O2)NC[C@H](O)c1cccc(Cl)c1 [Example 101, 5-{(2R)-2-[(2R)-2-(3-Chloro-phenyl)-2-hydroxy-ethylamino]-propyl}-benzo[1,3]dioxole-2,2-dicarboxylic acid bis-(4-benzyloxy-but-2-enyl)ester]

activation at 0.01 µM [1, 6]: 2%
Compound: C[C@H](Cc1ccc2c(c1)OC(C(=O)OCCCOCc1ccccc1)(C(=O)OCCCOCc1ccccc1)O2)NC[C@H](O)c1cccc(Cl)c1 [Example 104, 5-{(2R)-2-[(2R)-2-(3-Chloro-phenyl)-2-hydroxy-ethylamino]-propyl}benzo[1,3]dioxole-2,2-dicarboxylic acid bis-(3-benzyloxy-propyl)ester]
